Source: US20060154990A1, “Use of MEK inhibitors in treating abnormal cell growth” (AGOURON PHARMACEUTICALS, INC., priority 2004, published 2006)
Where “and” joins values, the source holds several entries; their conditions need not be identical. Identical values can stand only once. Like-named read-outs stand apart in the source and are kept apart here.

Experiments:
[1] = test system: ZR-75-1 (human tumor of unknown phenotype); experiment: Antitumor activity in ZR-75-1 tumor model; format: in vivo, mice; conditions: ZR-75-1 (unknown phenotype), oral 25 mg/kg once a day for 14 days
[2] = Metabolites of [14C] Compound 1 in cryopreserved hepatocytes; format: in vitro ADME, monkey; conditions: [C-14] Compound 1 10 μM, 180 mins
Procedure: (§1) Incubations were performed in hepatocytes for 3 hours and liver microsomes for 1.5 hours and were stopped with the addition of methanol. HPLC, in conjuction with ionspray 3D iontrap mass spectrometry, and simultaneous radioactive monitoring were used to detect and identify the resulting metabolites.
Metabolite identification of radiolabeled Compound 1 was performed after incubation with rat, dog, monkey and human cryopreserved hepatocytes and liver microsomes. […] Besides glucuronidation, metabolites derived from other clearance pathways are also observed. For instance, M 15 (acid cleavage product) accounts for 11% of the total radioactivity in the human chromatogram.

[3] = Metabolites of [14C] Compound 1 in liver microsomes; format: in vitro ADME, dog; conditions: [C-14] Compound 1 10 μM, 90 mins
Procedure: as §1
This acid cleavage product is further metabolized to form hydroxylated (M 11, 16% in rat) and hydroxylated, defluorinated products (M 17, 19% in rat).

[4] = test system: MiaPaCa-2 pancreatic xenograft; experiment: Antitumor activity in MiaPaCa-2 tumor model; format: in vivo, mice; conditions: oral 25 mg/kg once a day for 14 days
[5] = test system: RXF-393 renal cell carcinoma; experiment: Antitumor activity in RXF-393 tumor model; format: in vivo, mice; conditions: oral 25 mg/kg once a day, euthanized on day 8 of dosing
[6] = Maximum tolerated dose and lethality in mice
[7] = test system: advanced cancer (breast, colon, NSCLC, melanoma); experiment: Phase 1/2 clinical study: tumor response (RECIST); conditions: for Clinical Response: individual patient
pERK in BxPC-3 tumors = experiment: Tumor pERK inhibition and PK-PD in BxPC-3 xenograft; format: in vivo, mice; conditions: BxPC-3 tumor, 25 mg/kg oral
[8] = test system: ERK phosphorylation in colon 26 cells; experiment: cells; conditions: Mus musculus

Q: Which results are given for `O=C(NOC[C@H](O)CO)c1ccc(F)c(F)c1Nc1ccc(I)cc1F` [Compound 1, N-[(R)-2,3-dihydroxy-propoxy]-3,4-difluoro-2-(2-fluoro-4-iodo-phenylamino)-benzamide]?
A: CR (complete responder) [1]: 7/8; PR (partial responder) [1]: 1/8; T − C [1]: 24.2 days; Tumor Free [1]: 0/8; doses at which Grade 3 rashes were seen (human, in vivo): above 15 mg BID; effect on serum (C×P) product (human, in vivo): no notable effect; MTD (patients, dosing 21 days of a 28-day cycle): 20 mg BID; % ROI Monkey [2]: 23.46%; % ROI Dog [3]: 81.16%; CR (complete responder) [4]: 1/9; PR (partial responder) [4]: 0/9; T − C [4]: 16.8 days; Tumor Free [4]: 0/9; CR (complete responder) [5]: 0/10; PR (partial responder) [5]: 0/10; Tumor Free [5]: 0/10; MTD at 14 days ([6]; BALB/c and SCID, mouse, in vivo, po): 25 mg/kg/day and 25 mg/kg; deaths or weight loss ([6]; mice, 25 mg/kg oral daily for 14 days): no deaths or weight loss; LD10 ([6]; mice, IV regimen): 100 mg/kg; Deaths ([6]; mice, oral daily dosing of 50 mg/kg, sixth day of treatment): 5 out of 8; Clinical Response ([7]; 2 mg BID, colon, cell wraps: stable disease): stable; Clinical Response ([7]; 2 mg BID, melanoma, cell wraps: stable disease): stable; Clinical Response ([7]; 4 mg BID, lung, cell wraps: stable disease): stable; Clinical Response ([7]; 4 mg BID, melanoma, cell wraps: stable disease): stable; Clinical Response ([7]; 15 mg BID, breast, cell wraps: stable disease): stable; Clinical Response ([7]; 20 mg BID continuous, melanoma, cell wraps: stable disease): stable; Clinical Response ([7]; 20 mg BID, melanoma, cell wraps: partial response): partial; Clinical Response ([7]; 30 mg BID, melanoma, cell wraps: stable disease): stable; Patients with stable disease ([7]; of 42 patients treated): 10; Partial responses ([7]; of 42 patients treated, melanoma): 2; inhibition of pERK expression 24 hours after dosing (pERK in BxPC-3 tumors): 23%; IC50 ([8]; Colon 26, 1 h, read-out: Cellular IC50): 0.34 nM; IC50 ([8]; Colon 26, read-out: IC50, phosphorylation of MAP kinase): 0.33 nM
